# According to article PMC12123458, “Unraveling Small Molecule-Mediated Sirtuin 3 Activation at a Distinct Binding Site for Cardioprotective Therapies” (ACS Central Science, 2025):
# How the values were obtained:
# [1] = tested on: H9c2 cells; assay: Dox-induced cardiotoxicity model in H9c2 cells, MTT cell viability; format: cell-based; details: Dox-treated H9c2 cells, cell viability
# Experimental: H9c2 cardiomyocytes were cultured in high-glucose DMEM supplemented with 10% FBS and 1% penicillin/streptomycin under a 5% CO2 atmosphere at 37 °C. Cells were seeded at 5 × 10^4 cells/mL in 96-well plates and treated with 1 μM Dox for 24 h. After Dox treatment, cell viability was quantified via MTT assay; 3-(4,5-dimethythiazol-2-yl)-2,5-diphenyltetrazolium bromide (MTT, 5 mg/mL) was applied for 4 h, followed by DMSO dissolution of formazan crystals. Additionally, cells were pretreated with 10 μM SKLB-11A for 24 h prior to 1 μM Dox exposure, and viability was similarly assessed using MTT.
# [2] = tested on: LC3, p62, PINK1, Parkin in H9c2 cells; assay: Autophagy/mitophagy markers in H9c2 cells (Western blot, immunofluorescence); format: cell-based; details: 24 h
# Experimental: Proteomic analysis was conducted on H9c2 cells and murine cardiac tissues. Protein lysates were resolved via SDS-PAGE and transferred onto PVDF membranes. […] After washing, membranes were probed with secondary antibodies for 1 h at room temperature. Detection was facilitated by an ECL kit, with densitometry performed using ImageJ software to quantify protein expression, normalized against controls. The antibodies employed included: anti-SIRT3 (2627, Cell Signaling Technology), anti-acetylated lysine (9441, CST), anti-Ac.K68-MnSOD2 (ab137037, Abcam), anti-Ac.K122-MnSOD2 (ab214675, Abcam), anti-MnSOD2 (13141, CST), anti-LC3B (3868, CST), anti-p62 (8025, CST), anti-PINK1 (6946, CST), anti-Parkin (4211, CST), and anti-β-actin (ab8226, Abcam).
structure (smiles),measurement,setting,value
"c1cncc(-c2cn[nH]n2)c1 [3-TYP, reference compound]",effect of co-treatment on the cardioprotective efficacy of SKLB-11A,[1],attenuated the efficacy of SKLB-11A
same,LC3-II and p62 (autophagic flux),[2],reduced LC3-II localization
